Experimental data as given in ChEMBL document CHEMBL3414440, “Pure enantiomers of benzoylamino-tranylcypromine: LSD1 inhibition, gene modulation in human leukemia cells and effects on clonogenic potential of murine promyelocytic blasts” (Eur J Med Chem, 2015).

Experiments:
cells = conditions: Mus musculus, Leukemia cell, read-out: INH
Description: Inhibition of colony formation in mouse acute myeloid Leukemia cell assessed as colony forming unit at 0.25 uM after 7 days relative to control

[1] = target: T1, Amine oxidase [flavin-containing] A (Homo sapiens, UniProt P21397)
T1 sequence (P21397 whole entry): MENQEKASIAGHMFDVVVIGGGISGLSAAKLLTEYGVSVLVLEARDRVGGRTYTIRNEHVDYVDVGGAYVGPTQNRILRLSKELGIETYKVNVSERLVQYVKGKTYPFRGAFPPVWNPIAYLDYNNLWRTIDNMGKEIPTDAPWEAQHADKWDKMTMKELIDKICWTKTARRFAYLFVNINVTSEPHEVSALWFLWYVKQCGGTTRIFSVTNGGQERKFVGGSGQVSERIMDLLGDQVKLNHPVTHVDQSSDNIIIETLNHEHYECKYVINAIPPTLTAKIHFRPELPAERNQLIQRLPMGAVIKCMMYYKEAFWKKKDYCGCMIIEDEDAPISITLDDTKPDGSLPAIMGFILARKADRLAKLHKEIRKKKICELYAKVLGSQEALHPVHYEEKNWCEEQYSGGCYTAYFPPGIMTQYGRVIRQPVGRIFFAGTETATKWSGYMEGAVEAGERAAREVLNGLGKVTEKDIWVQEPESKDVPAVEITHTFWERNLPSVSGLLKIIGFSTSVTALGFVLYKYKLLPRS
Description: Inhibition of human recombinant MAOA expressed in Pichia pastoris incubated for 15 mins prior to substrate addition measured after 30 mins by luminescence assay

[2] = target: T2, Amine oxidase [flavin-containing] B (Homo sapiens, UniProt P27338)
T2 sequence (P27338 whole entry): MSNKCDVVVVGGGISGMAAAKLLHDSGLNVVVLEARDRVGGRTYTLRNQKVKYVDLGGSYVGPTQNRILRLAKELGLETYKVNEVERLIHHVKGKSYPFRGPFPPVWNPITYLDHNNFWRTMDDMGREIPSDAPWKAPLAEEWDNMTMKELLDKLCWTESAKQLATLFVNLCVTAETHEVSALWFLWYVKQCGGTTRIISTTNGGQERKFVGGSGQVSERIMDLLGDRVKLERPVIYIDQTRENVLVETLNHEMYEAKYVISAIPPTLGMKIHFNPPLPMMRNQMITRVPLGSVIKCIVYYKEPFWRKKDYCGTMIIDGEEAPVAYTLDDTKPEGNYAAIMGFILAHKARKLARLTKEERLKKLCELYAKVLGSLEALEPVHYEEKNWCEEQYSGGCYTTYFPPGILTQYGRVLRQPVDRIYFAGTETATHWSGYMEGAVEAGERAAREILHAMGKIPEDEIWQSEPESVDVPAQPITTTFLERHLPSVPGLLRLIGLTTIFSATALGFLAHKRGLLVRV
Description: Inhibition of human recombinant MAOB expressed in Pichia pastoris incubated for 15 mins prior to substrate addition measured after 30 mins by luminescence assay

[3] = target: T3, MAO-B (amine oxidase [flavin-containing] B) (Homo sapiens, UniProt P27338); assay: Inhibition of human recombinant MAOB expressed in Pichia pastoris at 100 uM incubated for 15 mins prior to substrate addition measured after 30 mins by luminescence assay
T3 sequence (P27338 whole entry): T2 sequence (P27338 whole entry)

SMILES	inhibition at […] (cells)	IC50 [1]	IC50 [2]	inhibition at 0.5 h, 100 µM [3]
N[C@H]1C[C@@H]1c1ccc(NC(=O)c2ccccc2)cc1	64%	–	–	–
N[C@H]1C[C@H]1c1cccc(NC(=O)c2ccccc2)c1	–	70 nM	80100 nM	–
N[C@H]1C[C@H]1c1ccc(NC(=O)c2ccccc2)cc1	83.8%	–	–	–
N[C@H]1C[C@@H]1c1cccc(NC(=O)c2ccccc2)c1	–	1370 nM	–	29%
N[C@@H]1C[C@H]1c1cccc(NC(=O)c2ccccc2)c1	–	1540 nM	84700 nM	–
N[C@@H]1C[C@H]1c1ccc(NC(=O)c2ccccc2)cc1	83.4%	–	–	–
N[C@@H]1C[C@@H]1c1cccc(NC(=O)c2ccccc2)c1	–	650 nM	–	34%
N[C@@H]1C[C@@H]1c1ccc(NC(=O)c2ccccc2)cc1	72%	–	–	–
